The source of these data is patent US6350745B1, “Thrombin inhibitors” (Merck & Co., Inc., priority 1999, dated 2002).

The term Ki denotes a dissociation constant, usually derived from enzyme kinetics or from competition with a known ligand.

Structures are written as SMILES.

In this assay the target is human α-thrombin (Homo sapiens, UniProt P00734). Description: In vitro assay for determining proteinase inhibition (thrombin). The class given is biochemical. The note with it: 25° C., 0.05 M TRIS buffer pH 7.4, 0.15 M NaCl, 0.1% PEG. The method, then: In vitro Assay for Determining Proteinase Inhibition
Assays of human α-thrombin and human trypsin were performed by the methods substantially as described in Thrombosis Research, Issue No. 70, page 173 (1993) by S. D. Lewis et al.
The assays were carried out at 25° C. in 0.05 M TRIS buffer pH 7.4, 0.15 M NaCl, 0.1% PEG. Trypsin assays also contained 1 mM CaCl2. In assays wherein rates of hydrolysis of a p-nitroanilide (pna) substrate were determined, a Thermomax 96-well plate reader was used was used to measure (at 405 nm) the time dependent appearance of p-nitroaniline. sar-PR-pna was used to assay human […]thrombin (Km=125 μM) and bovine trypsin (Km=125 μM). p-Nitroanilide substrate concentration was determined from measurements of absorbance at 342 nm using an extinction coefficient of 8270 cm^−1 M^−1.
In certain studies with potent inhibitors (Ki<10 nM) where the degree of inhibition of thrombin was high, a more sensitive activity assay was employed. […]
Activity assays were performed by diluting a stock solution of substrate at least tenfold to a final concentration ≦0.1 Km into a solution containing enzyme or enzyme equilibrated with inhibitor. Times required to achieve equilibration between enzyme and inhibitor were determined in control experiments. Initial velocities of product formation in the absence (Vo) or presence of inhibitor (Vi) were measured. […]

Turning to `Cc1cc2c(c(=O)n1CC(=O)NCc1ncccc1F)NC(=O)OC2(CC1CC1)CC1CC1` [compound 3-1], the Ki was < 100 nM.
